Measurements published in ChEMBL document CHEMBL1129726, “Tetrazole NK1 receptor antagonists: The identification of an exceptionally potent orally active antiemetic compound” (Bioorg Med Chem Lett, 1996).

Columns and labels:
Mustela putorius furo = experiment: In vivo antiemetic activity against radiation-induced emesis in ferret.; type: functional
Substance-P receptor = Substance-P receptor (Homo sapiens, UniProt P25103); experiment: Inhibition of [3H]-substance P binding to human NK1 receptor expressed in chinese hamster ovary cells; type: cell-based, CHO
Substance-P receptor, sequence (P25103 whole entry): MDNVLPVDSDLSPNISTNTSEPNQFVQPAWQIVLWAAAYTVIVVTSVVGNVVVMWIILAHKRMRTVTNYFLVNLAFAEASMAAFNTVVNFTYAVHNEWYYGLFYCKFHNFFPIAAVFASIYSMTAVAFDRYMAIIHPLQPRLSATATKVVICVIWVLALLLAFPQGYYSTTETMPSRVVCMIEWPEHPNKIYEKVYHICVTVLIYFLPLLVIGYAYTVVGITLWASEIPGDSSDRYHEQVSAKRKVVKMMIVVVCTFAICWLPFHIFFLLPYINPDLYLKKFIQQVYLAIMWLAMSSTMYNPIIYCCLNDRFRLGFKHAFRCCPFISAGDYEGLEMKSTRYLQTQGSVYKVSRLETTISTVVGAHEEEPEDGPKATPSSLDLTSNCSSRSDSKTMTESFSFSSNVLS

| Ki (Substance-P receptor) [nM] | Compound | ED90 (Mustela putorius furo) [mg/kg] |
| --- | --- | --- |
| 0.0398 | COc1ccc(-n2nnnc2SC)cc1CN[C@H]1CCCN[C@H]1c1ccccc1.Cl.Cl | 1 |
| 0.0398 | CCCc1nnnn1-c1ccc(OC)c(CN[C@H]2CCCN[C@H]2c2ccccc2)c1.Cl.Cl | > 3 |
| 0.0501 | CCc1nnnn1-c1ccc(OC)c(CN[C@H]2CCCN[C@H]2c2ccccc2)c1.Cl.Cl | 0.3 |
| 1 | COc1ccc(-n2nnnc2N)cc1CN[C@H]1CCCN[C@H]1c1ccccc1 | – |
| 0.398 | COc1ccc(-n2nnnc2-c2ccccc2)cc1CN[C@H]1CCCN[C@H]1c1ccccc1.Cl.Cl | > 1 |
| 0.251 | COc1ccc(-n2nnnc2NC(C)=O)cc1CN[C@H]1CCCN[C@H]1c1ccccc1 | – |
| 0.0631 | COc1ccc(-n2nnnc2S(C)(=O)=O)cc1CN[C@H]1CCCN[C@H]1c1ccccc1.Cl.Cl | > 1 |
| 0.0501 | COc1ccc(-n2nnnc2C)cc1CN[C@H]1CCCN[C@H]1c1ccccc1.Cl.Cl | 0.15 |
| 0.0794 | COc1ccc(-n2nnnc2C2CC2)cc1CN[C@H]1CCCN[C@H]1c1ccccc1.Cl.Cl | > 1 |
| 2 | CCN(CC)c1nnnn1-c1ccc(OC)c(CN[C@H]2CCCN[C@H]2c2ccccc2)c1 | – |
| 0.0251 | COc1ccc(-n2nnnc2C(F)(F)F)cc1CN[C@H]1CCCN[C@H]1c1ccccc1.Cl.Cl [VOFOPITANT DIHYDROCHLORIDE] | 0.03 |
| 0.0398 | COc1ccc(-n2cnnn2)cc1CN[C@H]1CCCN[C@H]1c1ccccc1.Cl.Cl | 0.1 |
